ChEMBL document CHEMBL6074649, “An insight into recent developments in imidazole based heterocyclic compounds as anticancer agents: Synthesis, SARs, and mechanism of actions” (Eur J Med Chem, 2024)
In brackets after ≈: the same amount, converted by molar mass.

Assays:
HeLa [1] = test: Antiproliferative activity against human HeLa cells assessed as reduction in cell growth incubated for 48 hrs by MTT assay; type: functional, cell-based
K562 = test: Antiproliferative activity against human K562 cells assessed as reduction in cell growth incubated for 48 hrs by MTT assay; type: functional, cell-based; conditions: K562, 48 h
HepG2 [2] = test: Cytotoxicity against human HepG2 cells assessed as reduction in cell growth incubated for 24 hrs by SRB assay; type: functional, cell-based; conditions: HepG2, 24 h
MCF7 [3] = test: Cytotoxicity against human MCF7 cells assessed as reduction in cell growth incubated for 24 hrs by SRB assay; type: functional, cell-based; conditions: MCF7, 24 h
U-251 = test: Antiproliferative activity against human U-251 cells assessed as reduction in cell viability incubated for 48 hrs by CCK-8 assay; type: functional, cell-based; conditions: U-251, 48 h
A549 [4] = test: Antiproliferative activity against human A549 cells assessed as reduction in cell viability incubated for 48 hrs by CCK-8 assay; type: functional, cell-based; conditions: A549, 48 h
HepG2 [5] = test: Antiproliferative activity against human HepG2 cells assessed as reduction in cell viability incubated for 48 hrs by CCK-8 assay; type: functional, cell-based; conditions: HepG2, 48 h
Caco-2 = test: Cytotoxicity against human Caco-2 cells assessed as reduction in cell growth measured for 24 hrs by MTT assay; type: functional, cell-based; conditions: Caco-2, 24 h
MCF7 [6] = test: Cytotoxicity against human MCF7 cells assessed as reduction in cell growth measured for 24 hrs by MTT assay; type: functional, cell-based; conditions: MCF7, 24 h
HepG2 [7] = test: Cytotoxicity against human HepG2 cells assessed as reduction in cell growth incubated for 24 hrs by MTT assay; type: functional, cell-based; conditions: HepG2, 24 h
A549 [8] = test: Anticancer activity against human A549 cells assessed as reduction in cell viability incubated for 48 hrs by MTT assay; type: functional, cell-based; conditions: A549, 48 h
IMR-32 = test: Anticancer activity against human IMR-32 cells assessed as reduction in cell viability incubated for 48 hrs by MTT assay; type: functional, cell-based; conditions: IMR-32, 48 h
HeLa [9] = test: Anticancer activity against human HeLa cells assessed as reduction in cell viability incubated for 48 hrs by MTT assay; type: functional, cell-based
[10] = Anticancer activity against HEK293 cells assessed as reduction in cell viability incubated for 48 hrs by MTT assay; type: toxicity, cell-based; conditions: human
MCF7 [11] = test: Anticancer activity against human MCF7 cells at 125 uM relative to control; type: functional
MCF7 [12] = test: Anticancer activity against human MCF7 cells at 31.25 uM relative to control; type: functional
MCF7 [13] = test: Anticancer activity against human MCF7 cells at 15.6 uM relative to control; type: functional
MCF7 [14] = test: Anticancer activity against human MCF7 cells at 7.8 uM relative to control; type: functional
MCF7 [15] = test: Anticancer activity against human MCF7 cells at 3.9 uM relative to control; type: functional
MCF7 [16] = test: Anticancer activity against human MCF7 cells at 1.9 uM relative to control; type: functional
MCF7 [17] = test: Anticancer activity against human MCF7 cells at 500 uM relative to control; type: functional
MCF7 [18] = test: Anticancer activity against human MCF7 cells at 62.5 uM relative to control; type: functional
MCF7 [19] = test: Anticancer activity against human MCF7 cells at 1.5 uM relative to control; type: functional
NCI-H1299 = test: Anticancer activity against human NCI-H1299 cells by MTT assay; type: functional, cell-based
A549 [20] = test: Anticancer activity against human A549 cells by MTT assay; type: functional, cell-based
[21] = Anticancer activity against human UKF-NB-3 cells by MTT assay; type: functional, cell-based
HepG2 [22] = test: Antiproliferative activity against human HepG2 cells assessed as reduction in cell growth incubated for 24 hrs by MTT assay; type: functional, cell-based; conditions: HepG2, 24 h
MCF7 [23] = test: Antiproliferative activity against human MCF7 cells assessed as reduction in cell growth incubated for 24 hrs by MTT assay; type: functional, cell-based; conditions: MCF7, 24 h
A549 [24] = test: Antiproliferative activity against human A549 cells assessed as reduction in cell growth incubated for 24 hrs by MTT assay; type: functional, cell-based; conditions: A549, 24 h
[25] = Antiproliferative activity against human MCF7/MX cells assessed as reduction in cell growth incubated for 24 hrs by MTT assay; type: functional, cell-based
A2780 = test: Cytotoxicity against human A2780 cells assessed as reduction in cell viability by MTT assay; type: functional, cell-based
COLO 205 = test: Cytotoxicity against human COLO 205 cells assessed as reduction in cell viability by MTT assay; type: functional, cell-based
MCF7 [26] = test: Cytotoxicity against human MCF7 cells assessed as reduction in cell viability by MTT assay; type: functional, cell-based
A549 [27] = test: Cytotoxicity against human A549 cells assessed as reduction in cell viability by MTT assay; type: functional, cell-based
A549 [28] = test: Antiproliferative activity against human A549 cells assessed as reduction in cell viability incubated for 24 hrs by MTT assay; type: functional, cell-based; conditions: A549, 24 h
AGS = test: Antiproliferative activity against human AGS cells assessed as reduction in cell viability incubated for 24 hrs by MTT assay; type: functional, cell-based
[29] = Antiproliferative activity against human MRC5 cells assessed as reduction in cell viability incubated for 24 hrs by MTT assay; type: toxicity, cell-based

Work on `COc1cc([C@@H]2c3cc4c(cc3[C@@H](n3ccnc3)[C@H]3COC(=O)[C@H]23)OCO4)cc(OC)c1OC` yielded an IC50 (HeLa [1]) of 5.22 µM and an IC50 (K562) of 2.88 µM.

`Cc1nc(S)n(-c2ccccc2)c1-c1cc(-c2ccc(-c3cc(-c4c(C)nc(S)n4-c4ccccc4)nc(N)c3C#N)cc2)c(C#N)c(N)n1` gave an IC50 (HepG2 [2]) of 6 µg/mL (≈ 8.71 µM) and an IC50 (MCF7 [3]) of 1.7 µg/mL (≈ 2.47 µM).

For `COc1cc([C@@H]2c3cc4c(cc3[C@@H](n3cnc([N+](=O)[O-])c3)[C@H]3COC(=O)[C@H]23)OCO4)cc(OC)c1O`, the IC50 (K562) was 7.43 µM.

`O=C(OCCn1c([N+](=O)[O-])cnc1/C=C/c1ccc2ccccc2c1)c1nccc2ccccc12` showed an IC50 (U-251) of 100 nM, an IC50 (A549 [4]) of 320 nM and an IC50 (HepG2 [5]) of 110 nM.

Molecule `CC[C@]1(O)C[C@@H]2CN(CCc3c([nH]c4ccccc34)[C@@](C(=O)OC)(c3cc4c(cc3OC)N(C)[C@H]3[C@@](O)(C(=O)OC)[C@H](OC(C)=O)[C@]5(CC)C=CCN6CC[C@]43[C@@H]65)C2)C1.O=S(=O)(O)O` [VINBLASTINE SULFATE] has an IC50 (HepG2 [2]) of 4.6 µg/mL and an IC50 (MCF7 [3]) of 5.7 µg/mL.

For `c1ccc(-c2nc(-c3ccc(OCc4c(COc5ccc(-c6nc(-c7ccccc7)c(-c7ccccc7)[nH]6)cc5)c(COc5ccc(-c6nc(-c7ccccc7)c(-c7ccccc7)[nH]6)cc5)c(COc5ccc(-c6nc(-c7ccccc7)c(-c7ccccc7)[nH]6)cc5)c(COc5ccc(-c6nc(-c7ccccc7)c(-c7ccccc7)[nH]6)cc5)c4COc4ccc(-c5nc(-c6ccccc6)c(-c6ccccc6)[nH]5)cc4)cc3)[nH]c2-c2ccccc2)cc1`, the IC50 (Caco-2) was 32.5 µM, the IC50 (MCF7 [6]) was 35.4 µM and the IC50 (HepG2 [7]) was 9.77 µM.

Molecule `O=c1c(-c2nc(-c3ccc(Br)cc3)c(-c3ccc(Br)cc3)[nH]2)coc2ccccc12` has an IC50 (A549 [8]) of 27.1 µM, an IC50 (IMR-32) of 29.4 µM and an IC50 (HeLa [9]) of 24.7 µM. For the same molecule, the IC50 at 48 h [10] was 82.3 µM.

For `Fc1ccc(Cn2c(-c3ccc(Cl)cc3)nc(-c3ccccc3)c2-c2ccccc2)cc1`, the inhibition at 125 µM (MCF7 [11]) was 24%, the inhibition at 31.25 µM (MCF7 [12]) was 39% and the inhibition at 15.6 µM (MCF7 [13]) was 55%. It also gave an inhibition at 7.8 µM (MCF7 [14]) of 63%, an inhibition at 3.9 µM (MCF7 [15]) of 78% and an inhibition at 1.9 µM (MCF7 [16]) of 65%. It also gave an inhibition at 500 µM (MCF7 [17]) of 12%, an inhibition at 62.5 µM (MCF7 [18]) of 30% and an inhibition at 1.5 µM (MCF7 [19]) of 88%.

For `O=C(Cn1cnc(-c2ccccc2)c1-c1ccccc1)NCCOC(=O)C12CC3CC(CC(C3)C1)C2`, the IC50 (NCI-H1299) was > 100 µg/mL, the IC50 (A549 [20]) was 43.2 µg/mL (≈ 89.3 µM) and the IC50 [21] was 8.53 µg/mL (≈ 17.6 µM).

In the case of `CCSc1nc(/C=C/C(=O)c2cc(OC)c(OC)c(OC)c2)cn1Cc1ccccc1`, the IC50 (HepG2 [22]) is reported as 22 µM, the IC50 (MCF7 [23]) is reported as 9.88 µM and the IC50 (A549 [24]) is reported as 7.05 µM. For the same molecule, the IC50 [25] was 20.2 µM.

For `COc1cc([C@@H]2c3cc4c(cc3[C@H](n3cnc(C)c3)[C@H]3COC(=O)[C@H]23)OCO4)cc(OC)c1OC`, the IC50 (HeLa [1]) was 4.48 µM and the IC50 (K562) was 8.8 µM.

In the case of `c1ccc(-c2nc(-c3ccc(OCc4cc(COc5ccc(-c6nc(-c7ccccc7)c(-c7ccccc7)[nH]6)cc5)c(COc5ccc(-c6nc(-c7ccccc7)c(-c7ccccc7)[nH]6)cc5)cc4COc4ccc(-c5nc(-c6ccccc6)c(-c6ccccc6)[nH]5)cc4)cc3)[nH]c2-c2ccccc2)cc1`, the IC50 (Caco-2) is reported as 34.8 µM, the IC50 (MCF7 [6]) is reported as 12.6 µM and the IC50 (HepG2 [7]) is reported as 19.1 µM.

In the case of `c1coc(-c2nc(-c3ccc(OCCCOc4ccc(-c5nc(-c6ccco6)c(-c6ccco6)[nH]5)cc4)cc3)[nH]c2-c2ccoc2)c1`, the IC50 (Caco-2) is reported as 327 µM, the IC50 (MCF7 [6]) is reported as 59.2 µM and the IC50 (HepG2 [7]) is reported as 8.14 µM.

For `O=[N+]([O-])c1cccc(S(=O)(=O)n2ccnc2-c2ccon2)c1`, the IC50 (A2780) was 630 nM, the IC50 (COLO 205) was 1900 nM and the IC50 (MCF7 [26]) was 1030 nM. For the same molecule, the IC50 (A549 [27]) was 1140 nM.

`CN(C)c1ccc(/C=C/c2ncc([N+](=O)[O-])n2CCOC(=O)c2nccc3ccccc23)cc1` gave an IC50 (U-251) of 140 nM, an IC50 (A549 [4]) of 430 nM and an IC50 (HepG2 [5]) of 170 nM.

`Cc1nc(S)n(-c2ccccc2)c1-c1cc(-c2ccccc2O)c(C#N)c(=O)[nH]1` showed an IC50 (HepG2 [2]) of 3 µg/mL (≈ 7.49 µM) and an IC50 (MCF7 [3]) of 2 µg/mL (≈ 4.99 µM).

`COc1cc(OC)c(S(=O)(=O)n2ccnc2-c2ccon2)c(OC)c1` showed an IC50 (A2780) of 1220 nM, an IC50 (COLO 205) of 260 nM and an IC50 (MCF7 [26]) of 410 nM. For the same molecule, the IC50 (A549 [27]) was 290 nM.

In the case of `COc1ccc(C(=O)/C=C/c2nccn2C)cc1`, the IC50 (A549 [28]) is reported as 61.7 µM, the IC50 (AGS) is reported as 20.9 µM and the IC50 at 24 h [29] is reported as 67.4 µM.
